Measurements taken from patent US6610686B1, “Use of pirenoxine for the protection of corneal tissues in photokeractomy” (Ausimont S.p.A., priority 1999, dated 2003).

Assays:
[1] = tested on: epithelium and endothelium homogenates of rabbit corneas; assay: In vitro Fe(III)-ascorbic acid induced lipid peroxidation in epithelium and endothelium homogenates of rabbit corneas; assay type: biochemical; settings: homogenate + 10 μM FeCl3 and ascorbic acid, 27° C., 30 minutes, 10^−5 M pirenoxine; mean ± SEM
Source text: The experimental procedure for the evaluation of the inhibiting action against the lipid-peroxidation exerted by pirenoxine in cornea epithelial and endothelial cells made use of Fe(III)-ascorbic acid system to induce the peroxidative phenomenon. The oxidative attack on membrane lipids was confirmed by the spectrophotometric determinations of both the conjugated dienes and fluorescent lipid-soluble substances which, as known, are generated by the oxidative degradation of lipid molecules.
Used experimental procedure included the following steps: a) abstraction of the cornea from the eye of male pigmented rabbits suitably selected and prepared for the study; b) incubation of the latter in 100 μM phosphate buffer, pH 7,5, in the presence of 1000 U collagenase and 5 μM CaCl2 for 20 hours at 37° C.; c) centrifugation at 35000 rpm at 0° C. for 10 minutes and washings of the sediment with phosphate buffer; d) homogenization of the cellular sediment in 1 ml of buffer, pH 7,4 (10% w/v); e) incubation of a suitable homogenate aliquot with 10 μM FeCl3 and ascorbic acid in phosphate buffer, pH 7,4, at 27° C. for 30 minutes in presence and in absence of 10^−5 M pirenoxine; f) extraction of the lipid-soluble substances using chloroform/methanol mixture (2:1 v/v). […]

[2] = reconstituted aqueous solution, ambient temperature; cited from earlier work
rabbit corneas = assay: In vivo effect on rabbit corneas after intrastromal injection of UV irradiated ferritin; settings: two drops of 0,005% pirenoxine every hour 8 times a day over 4 days, corneas at 5th day
Description: (a) rabbits were anaesthetized by low pentobarbital doses (20 mg/kg); (b) 25 μl of 50 μM ferritin in 0,15 M NaCl were injected in the stroma of the cornea by a 0,33×13 mm/29G insulin syringe whereas the controls were treated with 25 μl physiological solution; (c) in the eyes every hour two drops (1 drop=30 μl) of 0,005% pirenoxine in 0,145 M NaCl 8 times a day over 4 days were instilled, whereas the controls were treated only with the solvent, in the same amount and frequency; (d) at the 5th day the animals were sacrificed using a pentobarbital overdose (100 mg/kg); (e) the corneas were abstracted and the tissue cells separated and collected according to the procedure described in the ex vivo experiment; (f) the conjugated dienes and fluorescent soluble lipid contained in suitable homogenate aliquots were determined.
In vivo conjugated diene and lipid soluble fluorescence substance formation in corneas 5 days after the rabbit eyes were submitted to intrastromal injection of UV-irradiated ferritin and topical instillation of pirenoxine solution (2 drops every hour for 8 hr over 4 days)

[3] = tested on: rabbit corneas incubated with f-MLP-stimulated autologous macrophages; assay: In vitro protection of whole corneas against ROS from f-MLP-stimulated autologous rabbit macrophages; assay type: cell-based; settings: 10^−5 M pirenoxine, 10^−7 M f-MLP stimulated macrophages, two hours at 37° C.
Description: In order to evaluate the inhibition exerted by pirenoxine against the oxidizing activity of macrophage produced ROS at level of the cornea, the following procedure was carried out: (a) broncho-alveolar washing of the rabbit to obtain the macrophages; (b) abstraction of the cornea from the rabbit eye; (c) incubation of the corneas with 10^−7 M f-MLP stimulated or not stimulated macrophages (800000 cells/well) for two hours at 37° C., 5 % CO2 in presence and in absence of 10^−5 M pirenoxine; (d) separation and homogenization of the epithelial and endothelial corneal cells and subsequent determination of fluorescence as described in b, c, d and f steps of the above methodology.

[4] = tested on: epithelial corneal cells (SIRC); assay: In vitro protection of UV312 irradiated epithelial corneal cells (SIRC); assay type: cell-based; settings: for Lipid-soluble fluorescent substances, U/mg protein / Lipid-soluble fluorescent substances, U/well: UV312 80 mJ/cm^2, 10^−5 pirenoxine, 17 hours at 37° C.
Description: The protective effect of pirenoxine on epithelial comeal cells (SIRC) irradiated for 36″ using UV312 light (80 mJ/cm^2), according to the following procedure: (a) the comeal cells were plated in 35 mm diameter wells; (b) at 80% confluency the cells were contacted with a medium at low (0,2%) serum content to inhibit the proliferation thereof during the experiment (c) the cells were irradiated with UV light in presence and in absence of 10^−5 pirenoxine, incubated at 37° C. for 17 hours and homogenized in 10 mM f) phosphate buffer, pH 7,4; (d) the lipid-soluble fluorescent substances and the proteins contained in suitable homogenate aliquots were determined.

For `O=C(O)c1cc(O)c2c3nc4ccccc4oc-3cc(=O)c2n1` [pirenoxine, 1-hydroxy-5-oxo-5H-pyrido-[3,2a]-phenoxazin-3-carboxylic acid], the Conjugated dienes [1] is given as 2.77 ± 0.07 nmol/hemicornea, the “Fluorescence (fluorescent lipid-soluble substances)” value [1] is given as 5.22 ± 0.13 U/hemicornea and the “Storage time of reconstituted solution without degradation” value [2] is given as “about two weeks without degradation”. For the same molecule, the Conjugated diene (rabbit corneas) was 1.7 Nmoles/hemicornea, the Fluorescence (rabbit corneas) was 4.4 Unit/hemicornea and the “Induced fluorescence of lipid soluble substances (FIG. 1)” value [3] was “remarkably lower than the controls and are comparable to those of normal corneas (basal values)”. For the same molecule, the “Lipid-soluble fluorescent substances, U/mg protein” value ([4]; Cells 14/01) was 2.76 U/mg protein, the “Lipid-soluble fluorescent substances, U/well” value ([4]; Cells 14/01) was 0.92 U/well and the “Lipid-soluble fluorescent substances, U/mg protein” value ([4]; Cells 17/12) was 9.08 U/mg protein. For the same molecule, the “Lipid-soluble fluorescent substances, U/well” value ([4]; Cells 17/12) was 3.66 U/well, the “Lipid-soluble fluorescent substances, U/mg protein” value ([4]; Cells 20/12) was 7.35 U/mg protein and the “Lipid-soluble fluorescent substances, U/well” value ([4]; Cells 20/12) was 1.8 U/well. For the same molecule, the “Lipid-soluble fluorescent substances relative to irradiated cells not protected by pirenoxine” value ([4]; UV312 irradiation, 10^−5 pirenoxine) was “notably lower (about two and half times)”.
